Test results taken from patent US11976083B2, “Inhibitors of peptidylarginine deiminases” (Gilead Sciences, Inc., priority 2020, dated 2024).

Target: T1, human PAD4 (Homo sapiens, UniProt Q9UM07)
T1 construct: human PAD4 (NM_012387), A2-P663, was PCR amplified; His-SUMO (N, cleaved yes); made in house; host or cells: E. coli BL21(DE3)
Experiment: In vitro PAD4 BAEE biochemical assay
Details: BAEE substrate 3 mM, 5 nM PAD4, 2 mM calcium chloride; geometric mean of multiple experiments
Procedure, shortened: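 Recombinant PAD4 (5 nM final) with 2 mM CaCl2 was preincubated with compound for 30 min at 25 °C in MOPS pH 7.6 buffer with DTT, then reacted with 3 mM BAEE for 2 h at 25 °C. Released ammonia was detected fluorimetrically with o-phthalaldehyde/DTT; IC50 from four-parameter fit, geometric mean of experiments.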

T1 sequence (Q9UM07 2-663): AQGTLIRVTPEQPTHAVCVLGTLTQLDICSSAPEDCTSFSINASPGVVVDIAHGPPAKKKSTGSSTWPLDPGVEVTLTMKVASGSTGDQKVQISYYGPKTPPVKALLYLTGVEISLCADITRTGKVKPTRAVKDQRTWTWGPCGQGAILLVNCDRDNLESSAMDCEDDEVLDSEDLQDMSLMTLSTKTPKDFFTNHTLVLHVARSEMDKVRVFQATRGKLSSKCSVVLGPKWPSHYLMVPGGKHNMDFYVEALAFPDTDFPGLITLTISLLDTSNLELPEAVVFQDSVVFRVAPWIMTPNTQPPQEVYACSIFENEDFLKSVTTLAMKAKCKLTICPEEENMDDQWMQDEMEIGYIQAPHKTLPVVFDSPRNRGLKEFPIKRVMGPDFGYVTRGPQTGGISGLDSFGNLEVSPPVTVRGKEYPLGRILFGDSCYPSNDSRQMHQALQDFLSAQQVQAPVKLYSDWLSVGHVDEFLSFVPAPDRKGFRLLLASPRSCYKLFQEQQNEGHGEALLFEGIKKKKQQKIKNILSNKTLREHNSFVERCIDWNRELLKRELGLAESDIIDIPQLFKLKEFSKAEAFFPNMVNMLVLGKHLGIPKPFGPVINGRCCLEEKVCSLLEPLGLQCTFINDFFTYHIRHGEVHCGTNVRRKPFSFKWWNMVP

| IC50 | SMILES |
| --- | --- |
| 0.643 µM | COc1cc(C(=O)N2[C@H]3CC[C@@H]2[C@H](N)C3)cc2nc(-c3cc4ccc5nc4n3CCCCCCCCOc3ncccc3-5)n(C)c12 [Example 86, [(1~{R},2~{R},4~{S})-2-amino-7-azabicyclo[2.2.1]heptan-7-yl]-[7-methoxy-1-methyl-2-(8-oxa-6,17,23-triazatetracyclo[15.5.2.0^{2,7}.0^{20,24}]tetracosa-1(23),2,4,6,18,20(24),21-heptaen-18-yl)benzimidazol-5-yl]methanone] |
| 0.719 µM | COc1cc(C(=O)N2CC[C@@H](OC)[C@@H](N)C2)cc2nc(-c3cc4ccc5nc4n3CCCCC[C@H]3C[C@]3(F)C(=O)N[C@@H]5C)n(C)c12 [Example 688, (2~{R},5~{R},7~{S})-14-[5-[(3~{S},4~{R})-3-amino-4-methoxy-piperidine-1-carbonyl]-7-methoxy-1-methyl-benzimidazol-2-yl]-5-fluoro-2-methyl-3,13,19-triazatetracyclo[11.5.2.0^ {5,7}.0^{16,20}]icosa-1(19), 14,16(20),17-tetraen-4-one] |
| 0.128 µM | C[C@H]1NC(=O)C(C)(C)CCCCCCn2c(-c3nc4cc(C(=O)N[C@H]5CNCC[C@@H]5F)c(F)cc4n3CCOC(F)F)cc3ccc1nc32 [Example 502, 1-[2-(difluoromethoxy)ethyl]-6-fluoro-~{N}-[(3~ {S},4~{S})-4-fluoro-3-piperidyl]-2-[(11~{R})-8,8,11-trimethyl-9-oxo-1,10,19-triazatricyclo[10.5.2.0^ {15,18}]nonadeca-12(19),13,15(18),16-tetraen-17-yl]benzimidazole-5-carboxamide] |
| 0.064 µM | COc1cc(C(=O)N2[C@H]3CC[C@@H]2[C@H](N)C3)cc2nc(-c3cc4ccc5nc4n3CCCCCCCC3(CCC3)C(=O)N[C@@H]5C)n(C)c12 [Example 280] |
| 0.024 µM | COc1cc(C(=O)N2[C@H]3CC[C@@H]2[C@H](N)C3)cc2nc(-c3cc4ccc5nc4n3CCCCCCc3ccccc3C(=O)N[C@@H]5C)n(C)c12 [Example 40, (2~{R})-18-[5-[(1~{R},2~{R},4~{S})-2-amino-7-azabicyclo[2.2.1]heptane-7-carbonyl]-7-methoxy-1-methyl-benzimidazol-2-yl]-2-methyl-3,17,23-triazatetracyclo[15.5.2.0^{5,10).0^{20,24}] tetracosa-1(23),5,7,9,18,20(24),21-heptaen-4-one] |
| 0.398 µM | COC[C@@H]1[C@H](N)CCCN1C(=O)c1cc(OC)c2c(c1)nc(-c1cc3ccc4nc3n1CCCCC[C@@H]1C[C@H]1C(=O)N[C@@H]4C)n2C [Example 411, (2~{R},5~{R},7~{R})-14-[5-[(2~{S},3~{R})-3-amino-2-(methoxymethyl)piperidine-1-carbonyl]-7-methoxy-1-methyl-benzimidazol-2-yl]-2-methyl-3,13,19-triazatetracyclo[11.5.2.0^{5,7}.0^{16,20}] icosa-1(19),14,16(20),17-tetraen-4-one] |
| 0.19 µM | COc1cc(C(=O)N2CC[C@@H](OC)[C@@H](N)C2)cc2nc(-c3cc4ccc5nc4n3CCCCCc3cnc(C)nc3C(=O)N[C@@H]5C)n(C)c12 [Example 610, (2~{R})-17-[5-[(3~{S},4~ {R})-3-amino-4-methoxy-piperidine-1-carbonyl]-7-methoxy-1-methyl-benzimidazol-2-yl]-2,7-dimethyl-3,6,8,16,22-pentazatetracyclo[14.5.2.0^ {5,10}.0^{19,23}]tricosa-1(21),5(10),6,8,17,19,22-heptaen-4-one] |
| 0.054 µM | CO[C@@H]1CCN(C(=O)c2ccc3c(c2)nc(-c2cc4ccc5nc4n2CC(F)(F)CCC[C@@H]2C[C@H]2C(=O)N[C@@H]5C)n3C2CC2)C[C@@H]1N [Example 690, (2~{R},5~{R},7~{R})-14-[5-[(3~{S},4~{R})-3-amino-4-methoxy-piperidine-1-carbonyl]-1-cyclopropyl-benzimidazol-2-yl]-11,11-difluoro-2-methyl-3,13,19-triazatetracyclo [11.5.2.0^{5,7}.0^{16,20}] icosa-1(19),14,16(20), 17-tetraen-4-one] |
| 0.047 µM | C[C@H]1NC(=O)[C@]2(C)C[C@H]2CCCC(F)(F)Cn2c(-c3nc4cc(C(=O)N[C@H]5CNCC[C@@H]5F)c(F)cc4n3C)cc3ccc1nc32 [Example 553, 2-[(2~{R},5~{R},7~ {R})-11,11-difluoro-2,5-dimethyl-4-oxo-3,13,19-triazatetracyclo [11.5.2.0^{5,7}.0^ {16,20}]icosa-1(19),14, 16(20),17-tetraen-14-yl]-6-fluoro-~{N}-[(3~{S}, 4~{S})-4-fluoro-3-piperidyl]-1-methyl-benzimidazole-5-carboxamide] |
| 0.059 µM | COc1cc(C(=O)N2CC[C@@H](OC)[C@@H](N)C2)cc2nc(-c3cc4ccc5nc4n3CCCCCc3cncc(F)c3C(=O)N[C@@H]5C)n(C)c12 [Example 650, (2~{R})-17-[5-[(3~{S}, 4~{R})-3-amino-4-methoxy-piperidine-1-carbonyl]-7-methoxy-1-methyl-benzimidazol-2-yl]-6-fluoro-2-methyl-3,8,16,22-tetrazatetracyclo[14.5.2.0^ {5,10}.0^{19,23}]tricosa-1(22),5,7,9,17,19(23),20-heptaen-4-one] |
| 0.201 µM | COc1cc(C(=O)N[C@H]2CNCC[C@H]2F)cc2nc(-c3cc4ccc5nc4n3CCCCCCC(C)(C)C(=O)N[C@@H]5C)n(C)c12 [Example 69, ~{N}-[(3~{S},4~{R})-4-fluoro-3-piperidyl]-7-methoxy-1-methyl-2-[(11~{R})-8,8,11-trimethyl-9-oxo-1,10,19-triazatricyclo[10.5.2.0^{15,18}]nonadeca-12(19),13,15(18),16-tetraen-17-yl]benzimidazole-5-carboxamide] |
| 0.165 µM | COc1cc(C(=O)N2[C@H]3CC[C@@H]2[C@H](N)C3)cc2nc(-c3cc4ccc5cc4n3CCCCCCC(=O)Nc3ccccc3-5)n(C)c12 [Example 94, 17-[5-[(1~{R},2~{R},4~{S})-2-amino-7-azabicyclo[2.2.1]heptane-7-carbonyl]-7-methoxy-1-methyl-benzimidazol-2-yl]-8,16-diazatetracyclo[14.5.2.0^{2,7}.0^{19,23}] tricosa-1(22),2,4,6,17,19(23),20-heptaen-9-one] |
| 0.023 µM | C[C@@H]1[C@H](N)CCCN1C(=O)c1cc(F)c2c(c1)nc(-c1cc3ccc4nc3n1CCCCCc1nc(Cl)ccc1C(=O)N[C@@H]4C)n2C1CC1 [Example 790, (2~{R})-17-[5-[(2~{R},3~{R})-3-amino-2-methyl-piperidine-1-carbonyl]-1-cyclopropyl-7-fluoro-benzimidazol-2-yl]-8-chloro-2-methyl-3,9,16,22-tetrazatetracyclo[14.5.2.0^ {5,10}.0^{19,23}]tricosa-1(21),5(10),6,8,17,19,22-heptaen-4-one] |
| 0.012 µM | C[C@H]1NC(=O)[C@@H]2C[C@@]2(F)CCCCCn2c(-c3nc4cc(C(=O)N[C@H]5CNCC[C@@H]5F)c(F)cc4n3C3CC3)cc3ccc1nc32 [Example 388] |
| 0.092 µM | C[C@H]1NC(=O)c2ccc(Cl)nc2CCCCCn2c(-c3nc4cc(C(=O)N5C[C@H](N)[C@@H]6CC[C@H]5C6)cc(F)c4n3CC(C)(C)C)cc3ccc1nc32 [Example 947, (2~{R})-17-[5-[(1~{S},4~ {R},5~{R})-4-amino-2-azabicyclo[3.2.1]octane-2-carbonyl]-1-(2,2-dimethylpropyl)-7-fluoro-benzimidazol-2-yl]-8-chloro-2-methyl-3,9,16,22-tetrazatetracyclo [14.5.2.0^{5,10}.0^{19,23}] tricosa-1(22),5(10),6,8,17, 19(23),20-heptaen-4-one] |
| 0.067 µM | C[C@H]1NC(=O)c2ncccc2CCCCCn2c(-c3nc4cc(C(=O)N[C@H]5CNCC[C@@H]5F)c(F)cc4n3C)cc3ccc1nc32 [Example 498, 6-fluoro-~{N}-[(3~{S}, 4~{S})-4-fluoro-3-piperidyl]-1-methyl-2-[(2~{R})-2-methyl-4-oxo-3,6,16,22-tetrazatetracyclo [14.5.2.0^{5,10}.0^ {19,23}]tricosa-1(22), 5,7,9,17,19(23),20-heptaen-17-yl]benzimidazole-5-carboxamide] |
| 0.01 µM | C[C@@H]1[C@H](N)CCCN1C(=O)c1cc(F)c2c(c1)nc(-c1cc3ccc4nc3n1CC(F)(F)CCC[C@@H]1C[C@H]1C(=O)N[C@@H]4C)n2[C@@H]1C[C@@H]1F [Example 747, (2~{R},5~{R},7~{R})-14-[5-[(2~{R},3~{R})-3-amino-2-methyl-piperidine-1-carbonyl]-7-fluoro-1-[(1~{R},2~{S})-2-fluorocyclopropyl]benzimidazol-2-yl]-11,11-difluoro-2-methyl-3,13,19-triazatetracyclo [11.5.2.0^{5,7}.0^{16,20}] icosa-1(19),14,16(20),17-tetraen-4-one] |
| 0.022 µM | CO[C@H]1C[C@@H]1n1c(-c2cc3ccc4nc3n2CC(F)(F)CCC[C@@H]2C[C@H]2C(=O)N[C@@H]4C)nc2cc(C(=O)N3CCC[C@@H](N)[C@H]3C)cc(F)c21 [Example 802, (2~{R},5~{R},7~{R})-14-[5-[(2~{R},3~{R})-3-amino-2-methyl-piperidine-1-carbonyl]-7-fluoro-1-[(1~{S},2~{S})-2-methoxycyclopropyl]benzimidazol-2-yl]-11,11-difluoro-2-methyl-3,13,19-triazatetracyclo [11.5.2.0^{5,7}.0^{16,20}] icosa-1(18),14,16,19-tetraen-4-one] |
| 0.146 µM | COc1cc(C(=O)N2CC[C@@H](OC)[C@@H](N)C2)cc2nc(-c3cc4ccc5nc4n3CC(F)(F)CCCCC3(CC3)C(=O)N[C@@H]5C)n(C)c12 [Example 823, (11~{R})-17-[5-[(3~ {S},4~{R})-3-amino-4-methoxy-piperidine-1-carbonyl]-7-methoxy-1-methyl-benzimidazol-2-yl]-3,3-difluoro-11-methyl-spiro[1,10,19-triazatricyclo[10.5.2.0^ {15,18}]nonadeca-12 (19),13,15(18),16-tetraene-8,1′-cyclopropane]-9-one] |
